Measured values from patent publication US7754896B2, “Indol-alanine derivatives as selective S1P4-agonists” (Novartis AG, priority 2004, dated 2010).

Target: T1, S1P4 (Homo sapiens, UniProt O95977)
T1 construct: expressed in transfected cells
T1 sequence (O95977 1-384): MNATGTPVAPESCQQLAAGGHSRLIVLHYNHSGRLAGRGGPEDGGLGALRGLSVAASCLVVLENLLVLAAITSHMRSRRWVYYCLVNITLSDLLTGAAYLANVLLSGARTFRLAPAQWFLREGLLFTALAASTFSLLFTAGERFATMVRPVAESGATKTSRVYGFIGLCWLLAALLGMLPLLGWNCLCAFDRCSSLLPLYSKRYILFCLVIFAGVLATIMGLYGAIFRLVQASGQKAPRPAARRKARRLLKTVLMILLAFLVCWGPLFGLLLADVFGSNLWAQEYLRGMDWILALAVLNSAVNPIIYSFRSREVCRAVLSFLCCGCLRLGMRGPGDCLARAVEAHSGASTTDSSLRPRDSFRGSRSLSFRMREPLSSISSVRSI
Test: GTPγS binding assay, S1P4
Type: biochemical
Conditions: CHO cells expressing S1P4
Experimental: An expression vector for the human S1P4 gene (HSEDG4; GenBank Accession Number AJ000479) fused to the c-myc peptide tag at the C-terminus is obtained as described in Van Brocklyn et al. 2000, Blood 95(8), 2624. The encoding DNA for the S1P4-myc fusion protein is cloned in the mammalian expression vector pRc/CMV (Invitrogen), which confers G418 resistance for the selection of stable mammalian cells. The DNA sequence of the S1P4 insert is determined on both strands. […] The S1P4-myc cDNA is inserted into the pRc/CMV vector using HindIII/XbaI.
To develop stable cell lines expressing the c-myc tagged S1P4 receptor 5 μg of plasmid pRc/CMV myc-S1P4 is cut using restriction endonuclease PvuI, which cleaves the plasmid once. The linearized plasmid is then precipitated using a final concentration of 0.3M sodium acetate, pH5.0 and 66% ethanol. After centrifugation and washing, the DNA pellet is dissolved in 30 μl water. […] Individual clones that grew after the sort and selection procedure are expanded and one clone is finally selected based on the level of S1P4 mRNA expression determined by TaqMan quantitative PCR analysis.
Membrane proteins are prepared from wild type CHO-K1 and the CHO cell clones expressing human S1P4. […] The protein concentration is determined using the Bio Rad Protein Assay and human IgG as standard. […]

**Q.** How did the EC50 turn out when `NC(CNC(=O)c1cc2c(-c3ccccc3Cc3ccccc3)cccc2[nH]1)C(=O)O` (stereo not shown) [Example 2] was run?
**A.** 250 nM
